6 molecules from EP0656355A1, “BIPHENYLMETHANE DERIVATIVE AND MEDICINE CONTAINING THE SAME” (WAKUNAGA SEIYAKU KABUSHIKI KAISHA, priority 1992, dated 1994) can be followed below.

The target in assay [1] is T1, angiotensin II (AII) receptor (Rattus norvegicus, UniProt P25095).
T1 construct: Vascular smooth muscle cells, which had been separated from the aorta of a male Wistar rat and cultured on a 24-well multiplate; endogenous in cells; host or cells: primary cultured vascular smooth muscle cells from the aorta of a male Wistar rat
T1 sequence (P25095 1-359): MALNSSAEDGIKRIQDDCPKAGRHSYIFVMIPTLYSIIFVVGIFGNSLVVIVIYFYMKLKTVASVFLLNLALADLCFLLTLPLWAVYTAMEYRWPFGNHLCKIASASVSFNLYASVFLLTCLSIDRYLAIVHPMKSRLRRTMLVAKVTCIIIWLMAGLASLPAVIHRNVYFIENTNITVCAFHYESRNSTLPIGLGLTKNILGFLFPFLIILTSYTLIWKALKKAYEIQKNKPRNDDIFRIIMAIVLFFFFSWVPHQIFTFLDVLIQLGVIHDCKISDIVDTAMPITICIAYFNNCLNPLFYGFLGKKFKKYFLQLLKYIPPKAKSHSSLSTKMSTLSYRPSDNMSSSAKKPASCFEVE
As to the kind of experiment: Inhibitory action against the binding with angiotensin II (AII) receptor, 125I-AII competition on cultured rat aortic smooth muscle cells. Also noted: species or system male Wistar rat. The note with it: 50% substitution of ¹²⁵I-AII specific binding; ¹²⁵I-AII 2 x 10⁻¹⁰M; one hour at room temperature; rat vascular smooth muscle cells; read-out: IC₅₀. The procedure:
(1) Inhibitory action against the binding with angiotensin II (AII) receptor, using cultured rat aortic smooth muscle cells The present test was conducted in accordance with the method reported by Chiu et al. in European Journal of Pharmacology, 157, 13-21(1988), though after some modifications. […] To each well, ¹²⁵I-AII (final concentration: 2 x 10⁻¹⁰M) was added together with or without a test compound to give a total volume of 0.2 mℓ. Then the wells were incubated for one hour at room temperature to make the ¹²⁵I-AII and the test compound competitively bind to the vascular smooth muscle cells. Each well was thereafter washed with an ice-cold buffer three times to remove unbound ¹²⁵I-AII. To the cells, 0.2 mℓ of a 1 mol/ℓ solution of sodium hydroxide was added to solubilize the bound ¹²⁵I-AII. A bound amount of ¹²⁵I-AII contained in the resulting cell solution was measured by a gamma counter. The above test was conducted for each compound at different concentrations of 3 doses or more. The inhibition rate against the specific binding with ¹²⁵I-AII at each concentration was calculated in accordance with an equation to be set out subsequently herein.

Assay [2] concerns renal hypertensive rats. As to the kind of experiment: Antihypertensive action on renal hypertensive rats (invasive). It counts as in vivo, male SD rat. The note with it: decreased rate of mean blood pressure; orally administered at 3 mg/kg; femoral artery cannula. The text has this: (4) Antihypertensive action on renal hypertensive rats (invasive)
Renal hypertensive rats were each prepared by constricting the left renal artery of a male SD rat (age: 6 weeks old, body weight: 190-220 g) with a silver clip (inner diameter: 0.017 inch) under anesthesia. Antihypertensive action was studied employing the rats whose mean blood pressure arose to 150 mmHg or higher in 4-8 weeks after the constriction of the renal artery. On the day before the test, a cannula for measure of blood pressure was inserted into the femoral artery of each of the renal hypertensive rats under anesthesia and was allowed to remain in the artery. The rats were maintained on food and water ad libitum until immediately before the test was started. The cannula so inserted was connected to a blood pressure transducer and mean blood pressure was recorded on a polygraph. After the blood pressure became stable, the test compound which was suspended in 0.5% carboxymethyl cellulose was orally administered to each of the rats at 3 mg/kg. In accordance with the following equation, a decreased rate of blood pressure (%) was calculated from the blood pressure values before and after the administration of the test compound. [formula]

The subject of assay [3] is angiotensin II contraction in longitudinal ileac muscles. The assay can be described thus: Inhibitory activity to angiotensin II contraction in longitudinal ileac muscles excised from a guinea pig. The note with it: Cavia porcellus, 20 min; 50% contraction inhibition concentration; 10⁻⁸M angiotensin II; test compound reacted for 20 minutes; guinea pig ileum longitudinal muscle; read-out: IC₅₀. It counts as cell-based, Hartley male guinea pig. As for the experimental part:
(2) Inhibitory activity to angiotensin II contraction in longitudinal ileac muscles excised from a guinea pig
A Hartley male guinea pig (350-450 g in weight) was sacrificed under exsanguination, followed by the excision of its ileum.
A longitudinal muscle tissue (2 cm long) was prepared from the ileum in a manner known per se in the art. The sample was suspended in a 20-mℓ Magnus cylinder filled with a Tylode solution [composition (mM): NaCℓ 137, KCℓ 2.7, CaCℓ₂ 1.88, MgCℓ₂ 1.1, NaH₂PO₄ 0.4, NaH₂CO₃ 11.8 and glucose 5.6). The Tylode solution was incubated at 37°C and saturated with a mixed gas consisting of 95% O₂ + 5% CO₂. Using an isometric transducer ("TB-611T", manufactured by Nihon Kohden Corporation), variations in contraction were measured. The measurement results were recorded on a computer ("PC-9801", manufactured by NEC Corporation).
Under a load of 0.5 g initial tension, the longitudinal muscle sample was equilibrated in a nutrient solution for about one hour while being washed therewith at intervals of 15 minutes. Then, contracture by the administration of 80 mM of KCℓ was repeated twice. After conforming that the contraction occurred stably, the following test was conducted.
First, 10^-8M angiotensin II was administered to the sample and its maximum contraction was recorded. The test compound was then administered to the sample and they were reacted for 20 minutes. Administered again was 10⁻⁸M angiotensin II and the maximum contraction was measured. […] This test was repeated at increased concentrations of the test compound. A 50% contraction inhibition concentration (IC₅₀) was determined in accordance with a linear regressive calculation of the contraction inhibition rates.

Assay [4] has as its system renal hypertensive rats. As to the kind of experiment: Antihypertensive action on renal hypertensive rats (non-invasive). Type of assay: in vivo, male SD rat. The note with it: decreased rate of systolic blood pressure; orally administered at 10 mg/kg; non-invasive sphygmomanometer. The source says:
(3) Antihypertensive action on renal hypertensive rats (non-invasive)
Renal hypertensive rats were each prepared by constricting the left renal artery of a male SD rat (age: 6 weeks old, body weight: 200-220 g) with a silver clip (inner diameter: 0.017 inch) under anesthesia. The rats whose systolic blood pressure arose to 160 mmHg or higher in 4-8 weeks after the constriction of the renal artery were used for the test. The rats were maintained on food and water ad libitum until immediately before the test was started. Each test compound which was suspended in 0.5% methyl cellulose was orally administered at 10 mg/kg. After the administration of the test compound, the systolic blood pressure was measured periodically by a non-invasive sphygmomanometer ("BP-98", manufactured by SOFTLON K.K.). In accordance with the following equation, a decreased rate of blood pressure (%) was calculated from the blood pressure values before and after the administration of the compound. [formula]

The structures appear in SMILES notation.

As for `CCc1nn(Cc2ccc(-c3ccccc3-c3nnn[nH]3)cc2)c(=NC(=O)c2ccccc2C(=O)O)s1` [Compound No.126, N-[5-Ethyl-3-[2'-(1H-tetrazol-5-yl)biphenyl-4-yl]methyl-1,3,4-thiadiazoline-2-yliden]phthalamic acid], in assay [1], the IC50 amounted to 32 nM. In addition, the “Maximum action (%)” value in the assay with renal hypertensive rats [2] is given as 27.6%.

Consider `CCc1nn(Cc2ccc(-c3ccccc3-c3nnn[nH]3)cc2)c(=NC(=O)C2=C(C(=O)O)CCC2)s1` [Compound No.130, 2-[[5-Ethyl-3-[2'-(1H-tetrazol-5-yl)biphenyl-4-yl]methyl-1,3,4-thiadiazoline-2-yliden]aminocarbonyl]-1-cyclopenten carboxylic acid], for which the “Maximum action (%)” value with renal hypertensive rats [2] stood at 41.2%. Besides, the IC50 in assay [3] was found to be 0.65 nM.

With `CCCc1nn(Cc2ccc(-c3ccccc3-c3nnn[nH]3)cc2)c(=NC(=O)C2CC2)s1` [Compound No.21, 2-Cyclopropylcarbonylimino-5-n-propyl-3-[2'-(1H-tetrazol-5-yl)biphenyl-4-yl]methyl-1,3,4-thiadiazoline], the “Maximum action (%)” value in the assay on renal hypertensive rats [4] came to 26.3%. The IC50 in assay [3] was determined as 8 nM.

As for `Cc1nn(Cc2ccc(-c3ccccc3-c3nnn[nH]3)cc2)c(=NC(=O)C2CC2)s1` [Compound No.17, 2-Cyclopropylcarbonylimino-5-methyl-3-[2'-(1H-tetrazol-5-yl)biphenyl-4-yl]methyl-1,3,4-thiadiazoline], in the assay on renal hypertensive rats [4], the “Maximum action (%)” value is recorded as 25.9%. The IC50 in assay [3] was 7.5 nM.

With `CCc1nn(Cc2ccc(-c3ccccc3-c3nn[nH]n3)cc2)c(=NC(=O)C2CCCCC2C(=O)O)s1` (racemic) [Compound No.158, cis-2-[[5-Ethyl-3-[2'-(1H-tetrazol-5-yl)biphenyl-4-yl]methyl-1,3,4-thiadiazoline-2-yliden]aminocarbonyl] cyclohxanecarboxylic acid], the “Maximum action (%)” value with renal hypertensive rats [2] is 38.4%. Further, the IC50 in assay [3] worked out at 0.51 nM.

Turning to `O=C(O)c1csc(=NC(=O)C2CC2)n1Cc1ccc(-c2ccccc2-c2nnn[nH]2)cc1` [Compound No.242, 2-Cyclopropylcarbonylimino-3-[2'-(1H-tetrazol-5-yl)biphenyl-4-yl]methylthiazoline-4-carboxylic acid], the IC50 in assay [1] came to 13 nM. Moreover, in the assay with renal hypertensive rats [2], the “Maximum action (%)” value was 29.5%.
